From the supplement of paper PMC10307832

Columns and labels:
Assay in all cases: relative viability (nuclei count vs DMSO), 5 days (fraction); higher = more cells survive
Ispinesib + AZD7762 = compound: Cc1ccc(C(=O)N(CCCN)[C@@H](c2nc3cc(Cl)ccc3c(=O)n2Cc2ccccc2)C(C)C)cc1 [Ispinesib] + NC(=O)Nc1cc(-c2cccc(F)c2)sc1C(=O)N[C@H]1CCCNC1 [AZD7762] (partner 0.2 µM)
Procedure, shortened: (§1)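 Five library-drug doses in √10 steps were combined with a fixed anchor-drug dose, or a single drug was given alone, by pin tool to lung cancer cell lines in 1536-well plates the day after seeding. Nuclei were stained and counted after 5 days. Relative viability is the nuclei count in treated wells over that in vehicle wells, taken as the median of duplicate plates.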

Linsitinib + Pictilisib = compound: C[C@]1(O)C[C@@H](c2nc(-c3ccc4ccc(-c5ccccc5)nc4c3)c3c(N)nccn32)C1 [Linsitinib] + CS(=O)(=O)N1CCN(Cc2cc3nc(-c4cccc5[nH]ncc45)nc(N4CCOCC4)c3s2)CC1 [Pictilisib] (partner 1 µM)
Procedure, shortened: as §1

Ispinesib + Navitoclax = compound: Cc1ccc(C(=O)N(CCCN)[C@@H](c2nc3cc(Cl)ccc3c(=O)n2Cc2ccccc2)C(C)C)cc1 [Ispinesib] + CC1(C)CCC(c2ccc(Cl)cc2)=C(CN2CCN(c3ccc(C(=O)NS(=O)(=O)c4ccc(N[C@H](CCN5CCOCC5)CSc5ccccc5)c(S(=O)(=O)C(F)(F)F)c4)cc3)CC2)C1 [Navitoclax] (partner 0.5 µM)
Procedure, shortened: as §1

Ispinesib + Pemetrexed = compound: Cc1ccc(C(=O)N(CCCN)[C@@H](c2nc3cc(Cl)ccc3c(=O)n2Cc2ccccc2)C(C)C)cc1 [Ispinesib] + Nc1nc2[nH]cc(CCc3ccc(C(=O)N[C@@H](CCC(=O)O)C(=O)O)cc3)c2c(=O)[nH]1 [Pemetrexed] (partner 0.2 µM)
Procedure, shortened: as §1

Cell Line	relative viability (Ispinesib + AZD7762; first compound 0.001 µM)	relative viability (Ispinesib + AZD7762; first compound 0.003162 µM)	relative viability (Ispinesib + AZD7762; first compound 0.01 µM)	relative viability (Ispinesib + AZD7762; first compound 0.03162 µM)	relative viability (Ispinesib + AZD7762; first compound 0.1 µM)	relative viability (Linsitinib + Pictilisib; first compound 0.01 µM)	relative viability (Linsitinib + Pictilisib; first compound 0.03162 µM)	relative viability (Linsitinib + Pictilisib; first compound 0.1 µM)	relative viability (Linsitinib + Pictilisib; first compound 0.3162 µM)	relative viability (Linsitinib + Pictilisib; first compound 1 µM)	relative viability (Ispinesib + Navitoclax; first compound 0.001 µM)	relative viability (Ispinesib + Navitoclax; first compound 0.003162 µM)	relative viability (Ispinesib + Navitoclax; first compound 0.01 µM)	relative viability (Ispinesib + Navitoclax; first compound 0.03162 µM)	relative viability (Ispinesib + Navitoclax; first compound 0.1 µM)	relative viability (Ispinesib + Pemetrexed; first compound 0.001 µM)	relative viability (Ispinesib + Pemetrexed; first compound 0.003162 µM)	relative viability (Ispinesib + Pemetrexed; first compound 0.01 µM)	relative viability (Ispinesib + Pemetrexed; first compound 0.03162 µM)	relative viability (Ispinesib + Pemetrexed; first compound 0.1 µM)
NCI-H1395	0.411	0.403	0.356	0.31	0.355	0.568	0.603	0.618	0.573	0.556	1.32	1.1	1.16	0.553	0.326	0.986	1.04	0.725	0.432	0.377
NCI-H1437	1.16	1.15	1.18	1.13	0.296	0.449	0.53	0.455	0.467	0.57	1.28	1.1	1.43	1.06	0.295	0.31	0.334	0.329	0.347	0.238
NCI-H1651	0.531	0.561	0.524	0.441	0.408	0.505	0.569	0.475	0.377	0.508	1.28	1.13	1.3	0.991	0.213	0.616	0.783	0.57	0.63	0.418
NCI-H1666	0.872	0.922	0.898	0.699	0.641	0.376	0.286	0.296	0.162	0.307	0.987	0.876	0.945	0.527	0.25	0.89	0.786	0.883	0.91	0.817
NCI-H1734	0.709	0.627	0.64	0.448	0.245	0.474	0.456	0.392	0.421	0.295	0.868	0.952	1.04	0.777	0.549	0.414	0.415	0.395	0.336	0.248
NCI-H1755	0.489	0.437	0.433	0.408	0.274	0.422	0.409	0.442	0.237	0.372	1.01	1.15	1.09	0.917	0.7	0.486	0.439	0.435	0.496	0.325
NCI-H1792	0.73	0.742	0.828	0.119	0.157	0.314	0.279	0.192	0.269	0.179	0.827	0.825	0.594	0.299	0.516	1.05	1.15	0.903	0.448	0.135
NCI-H1793	0.476	0.494	0.352	0.412	0.295	0.309	0.311	0.238	0.235	0.29	0.464	0.729	0.382	0.394	0.405	1.09	0.943	1.12	0.775	0.232
NCI-H1915	0.728	0.687	0.748	0.451	0.112	0.996	0.943	0.97	0.726	0.522	0.84	0.804	0.778	0.759	0.566	0.518	0.528	0.516	0.294	0.113
NCI-H1944	0.443	0.483	0.482	0.32	0.189	0.33	0.354	0.344	0.349	0.299	0.994	1.09	1.02	0.785	0.806	0.682	0.61	0.588	0.389	0.218
NCI-H1975	0.678	0.829	0.781	0.617	0.279	0.286	0.253	0.246	0.255	0.178	1.16	1.25	1.27	1.14	0.186	0.328	0.327	0.322	0.277	0.155
NCI-H1993	0.918	0.821	0.636	0.646	0.508	0.831	0.832	0.843	0.643	0.896	0.869	0.944	0.87	0.84	0.526	0.652	0.677	0.637	0.587	0.404
NCI-H2085	0.962	1.08	1.07	0.806	0.466	0.431	0.462	0.426	0.466	0.471	1.12	1.17	1.19	1.13	0.672	0.946	0.905	0.943	0.917	0.361
NCI-H2087	1.35	1.37	1.48	1.02	0.558	0.92	0.906	0.723	0.294	0.775	0.976	1.07	1.23	0.933	0.156	0.667	0.715	0.66	0.635	0.149
NCI-H2126	1.04	1.08	1.2	1.03	0.591	0.489	0.486	0.459	0.389	0.359	0.844	0.862	0.861	0.842	0.818	0.672	0.669	0.768	0.647	0.303
